pIC50: −log10 of the molar value.
Assays:
KRAS G12D = KRAS G12D (Homo sapiens, UniProt P01116, G12D); experiment: GDP-GTP exchange assay (bodipy-GDP/GppNHp, SOS1), KRAS G12D; assay type: biochemical; details: bodipy-loaded KRAS G12D 2.5 nM, 4 h pre-incubation; value for the most potent isomer quoted for certain compounds; read-out: G12D (KRAS G12D exchange assay IC50)
KRAS G12V = KRAS G12V (Homo sapiens, UniProt P01116, G12V); experiment: GDP-GTP exchange assay (bodipy-GDP/GppNHp, SOS1), KRAS G12V; assay type: biochemical; details: KRAS G12V mutant; value for the most potent isomer quoted for certain compounds; read-out: G12V (KRAS G12V exchange assay IC50)
Chain of KRAS G12V (P01116 1-188 isoform P01116-2 G12V): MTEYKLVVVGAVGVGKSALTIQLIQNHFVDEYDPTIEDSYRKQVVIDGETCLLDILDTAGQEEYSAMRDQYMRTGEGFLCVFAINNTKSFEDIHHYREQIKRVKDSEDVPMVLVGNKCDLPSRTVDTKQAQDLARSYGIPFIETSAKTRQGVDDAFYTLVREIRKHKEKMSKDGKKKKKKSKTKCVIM

Chain of KRAS G12D (P01116 1-188 isoform P01116-2 G12D): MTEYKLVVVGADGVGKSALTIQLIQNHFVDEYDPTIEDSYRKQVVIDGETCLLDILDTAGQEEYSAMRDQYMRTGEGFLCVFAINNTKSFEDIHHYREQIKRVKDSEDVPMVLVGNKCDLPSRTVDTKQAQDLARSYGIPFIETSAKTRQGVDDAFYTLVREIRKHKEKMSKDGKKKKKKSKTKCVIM

Row | SMILES | pIC50 (KRAS G12D) | pIC50 (KRAS G12V)
1 | Cc1cccc(O[C@H]2C[C@H](c3cc4c(C)nc5c(F)c(-c6cccc(Cl)c6Cl)c(CCC#N)cc5c4n3[C@H]3C4CNC3C4)N(C(=O)C3CC3)C2)c1 (stereo partly drawn) [Example 134] | ≥ 7.00 | ≥ 7.00
2 | Cc1nc2c(F)c(-c3cccc(Cl)c3Cl)c(CCC#N)cc2c2c1cc([C@H]1C[C@H](Oc3ccc4ccccc4n3)CN1C(=O)C1CC1)n2[C@H]1[C@H]2CN[C@@H]1C2 [Example 121] | ≥ 7.00 | ≥ 7.00
3 | Cc1nc2c(F)c(-c3cccc(Cl)c3Cl)c(CCC#N)cc2c2c1cc([C@H]1C[C@H](Oc3cccc(C(F)(F)F)n3)CN1C(=O)C1CC1)n2[C@H]1C2CNC1C2 (stereo partly drawn) [Example 142] | ≥ 7.00 | ≥ 7.00
4 | C[C@@H](O)c1nc2c(F)c(-c3cccc(Cl)c3Cl)c(CCC#N)cc2c2c1cc([C@H]1[C@@H](F)[C@H](Oc3ccccn3)CN1C(=O)C1CC1)n2[C@H]1[C@H]2CN[C@@H]1C2 [Example 85] | ≥ 7.00 | ≥ 7.00
5 | Cc1nc2c(F)c(-c3cccc(Cl)c3Cl)c(CCC#N)cc2c2c1cc([C@H]1C[C@H](Oc3ccc(F)cc3)CN1C(=O)C1CC1)n2[C@H]1[C@H]2CN[C@@H]1C2 [Example 120] | ≥ 7.00 | ≥ 7.00
6 | Cc1nc2c(F)c(-c3cccc(Cl)c3Cl)c(CCC#N)cc2c2c1cc([C@H]1C[C@H](OCc3ccccc3C#N)CN1C(=O)C1CC1)n2[C@H]1[C@H]2CN[C@@H]1C2 [Example 98] | ≥ 7.00 | ≥ 7.00
7 | Cc1nc2c(F)c(-c3cccc(Cl)c3Cl)c(CCC#N)cc2c2c1cc([C@H]1C[C@H](Oc3cccc(OC(F)(F)F)c3)CN1C(=O)C1CC1)n2[C@H]1[C@H]2CN[C@@H]1C2 [Example 171] | ≥ 7.00 | ≥ 7.00
8 | Cc1nc2c(F)c(-c3cccc(Cl)c3Cl)c(CCC#N)cc2c2c1cc([C@H]1C[C@H](OCc3cccnc3N)CN1C(=O)C1CC1)n2[C@H]1[C@H]2CN[C@@H]1C2 [Example 149] | ≥ 7.00 | ≥ 7.00
9 | Cc1nc2c(F)c(-c3cccc(Cl)c3Cl)c(CCC#N)cc2c2c1cc([C@H]1C[C@H](Oc3cnccn3)CN1C(=O)C1CC1)n2[C@H]1[C@H]2CN[C@@H]1C2 [Example 137] | ≥ 7.00 | ≥ 7.00
10 | Cc1nc2c(F)c(-c3cccc(Cl)c3Cl)c(CCC#N)cc2c2c1cc([C@H]1C[C@H](n3cc(Cc4ccccc4)nn3)CN1C(=O)C1CC1)n2[C@H]1[C@H]2CN[C@@H]1C2 [Example 145] | ≥ 7.00 | ≥ 7.00
11 | Cc1nc2c(F)c(-c3cccc(Cl)c3Cl)c(CCC#N)cc2c2c1cc([C@H]1C[C@H](OCc3c(Cl)cccc3Cl)CN1C(=O)C1CC1)n2[C@H]1[C@H]2CN[C@@H]1C2 [Example 116] | ≥ 7.00 | ≥ 7.00
12 | CC(C)(O)c1ccc(-c2nc3c(F)c(-c4cccc(Cl)c4Cl)c(CCC#N)cc3c3c2cc([C@H]2C[C@H](OCc4c(F)cccc4F)CN2C(=O)C2CC2)n3[C@H]2[C@H]3CN[C@@H]2C3)cn1 [Example 158] | ≥ 7.00 | ≥ 7.00
13 | Cc1nc2c(F)c(-c3cccc(Cl)c3Cl)c(CCC#N)cc2c2c1cc([C@H]1C[C@H](OCc3cnsc3)CN1C(=O)C1CC1)n2[C@H]1[C@H]2CN[C@@H]1C2 [Example 110] | ≥ 7.00 | ≥ 7.00
14 | CCc1cccc(O[C@H]2C[C@H](c3cc4c(C)nc5c(F)c(-c6cccc(Cl)c6Cl)c(CCC#N)cc5c4n3[C@H]3[C@H]4CN[C@@H]3C4)N(C(=O)C3CC3)C2)c1 [Example 167] | ≥ 7.00 | ≥ 7.00

Now from value to compound:

Row | pIC50 (KRAS G12D) | pIC50 (KRAS G12V) | SMILES
15 | ≥ 7.00 | ≥ 7.00 | CO[C@H]1C[C@H](CO[C@H]2C[C@H](c3cc4c(C)nc5c(F)c(-c6cccc(Cl)c6Cl)c(CCC#N)cc5c4n3[C@H]3[C@H]4CN[C@@H]3C4)N(C(=O)C3CC3)C2)C1 [Example 401]
16 | ≥ 7.00 | ≥ 7.00 | Cc1nc2c(F)c(-c3cccc(Cl)c3Cl)c(CCC#N)cc2c2c1cc([C@H]1C[C@H](n3ccc(C#N)n3)CN1C(=O)C1CC1)n2[C@H]1[C@H]2CN[C@@H]1C2 [Example 317]
17 | ≥ 7.00 | ≥ 7.00 | Cc1nc2c(F)c(-c3cccc(Cl)c3Cl)c(CCC#N)cc2c2c1cc([C@H]1C[C@H](Oc3cccnc3OC(C)C)CN1C(=O)C1CC1)n2[C@H]1[C@H]2CN[C@@H]1C2 [Example 444]
18 | ≥ 7.00 | ≥ 7.00 | Cc1nc2c(F)c(-c3cccc(Cl)c3Cl)c(CCC#N)cc2c2c1cc([C@H]1C[C@H](OC3CC3C(=O)NC(C)(C)C)CN1C(=O)C1CC1)n2[C@H]1[C@H]2CN[C@@H]1C2 (stereo partly drawn) [Example 378]
19 | ≥ 7.00 | ≥ 7.00 | Cc1nc2c(F)c(-c3cccc(Cl)c3Cl)c(CCC#N)cc2c2c1cc([C@H]1C[C@H](Oc3cccc(C(=O)N4CCOCC4)c3)CN1C(=O)C1CC1)n2[C@H]1[C@H]2CN[C@@H]1C2 [Example 222]
20 | ≥ 7.00 | ≥ 7.00 | Cc1nc2c(F)c(-c3cccc(Cl)c3Cl)c(CCC#N)cc2c2c1cc([C@H]1C[C@H](Oc3ccn(C)c(=O)c3)CN1C(=O)C1CC1)n2[C@H]1[C@H]2CN[C@@H]1C2 [Example 419]
21 | ≥ 7.00 | ≥ 7.00 | Cc1nc2c(F)c(-c3cccc(Cl)c3Cl)c(CCC#N)cc2c2c1cc([C@H]1C[C@H](OCc3cccnc3Cl)CN1C(=O)C1CC1)n2[C@H]1[C@H]2CN[C@@H]1C2 [Example 253]
22 | ≥ 7.00 | ≥ 7.00 | Cc1nc2c(F)c(-c3cccc(Cl)c3Cl)c(CCC#N)cc2c2c1cc([C@H]1C[C@H](Oc3cnn(C(F)F)c3)[C@@H](C)N1C(=O)C1CC1)n2[C@H]1[C@H]2CN[C@@H]1C2 [Example 214]
23 | ≥ 7.00 | ≥ 7.00 | [2H]C([2H])(O[C@H]1C[C@H](c2cc3c(C(C)O)nc4c(F)c(-c5cccc(Cl)c5Cl)c(CCC#N)cc4c3n2[C@H]2[C@H]3CN[C@@H]2C3)N(C(=O)C2CC2)C1)c1nscc1C (stereo partly drawn) [Example 237]
24 | ≥ 7.00 | ≥ 7.00 | COC1CN(c2cc(O[C@H]3C[C@H](c4cc5c(C)nc6c(F)c(-c7cccc(Cl)c7Cl)c(CCC#N)cc6c5n4[C@H]4[C@H]5CN[C@@H]4C5)N(C(=O)C4CC4)C3)ccn2)C1 [Example 366]
25 | ≥ 7.00 | ≥ 7.00 | CCc1nnn([C@H]2C[C@H](c3cc4c(C)nc5c(F)c(-c6cccc(Cl)c6Cl)c(CCC#N)cc5c4n3[C@H]3[C@H]4CN[C@@H]3C4)N(C(=O)C3CC3)C2)c1-c1ccccc1 [Example 392]
26 | ≥ 7.00 | ≥ 7.00 | CC(=O)NC(C)(C)c1cn([C@H]2C[C@H](c3cc4c(C)nc5c(F)c(-c6cccc(Cl)c6Cl)c(CCC#N)cc5c4n3[C@H]3[C@H]4CN[C@@H]3C4)N(C(=O)C3CC3)C2)nn1 [Example 272]
27 | ≥ 7.00 | ≥ 7.00 | Cc1nc2c(F)c(-c3cccc(Cl)c3Cl)c(CCC#N)cc2c2c1cc([C@H]1C[C@H](n3cc([C@H](C)O)nn3)CN1C(=O)C1CC1)n2[C@H]1C2CNC1C2 (stereo partly drawn) [Example 184]
28 | ≥ 7.00 | ≥ 7.00 | Cc1nc2c(F)c(-c3cccc(Cl)c3Cl)c(CCC#N)cc2c2c1cc([C@H]1C[C@H](Oc3ccc(C#N)nc3)CN1C(=O)C1CC1)n2[C@H]1[C@H]2CN[C@@H]1C2 [Example 290]
29 | ≥ 7.00 | ≥ 7.00 | Cc1nc2c(F)c(-c3cccc(Cl)c3Cl)c(CCC#N)cc2c2c1cc([C@H]1C[C@H](Oc3c(F)cc(C#N)cc3F)CN1C(=O)C1CC1)n2[C@H]1[C@H]2CN[C@@H]1C2 [Example 293]
30 | ≥ 7.00 | ≥ 7.00 | Cc1nc2c(F)c(-c3cccc(Cl)c3Cl)c(CCC#N)cc2c2c1cc([C@H]1C[C@H](Oc3ccc(=O)n(C)c3)CN1C(=O)C1CC1)n2[C@H]1[C@H]2CN[C@@H]1C2 [Example 420]
